According to patent US6514686B2, “Method and composition for modulating amyloidosis” (The University of British Columbia, priority 1997, dated 2003):

Legend:
MDR1 = details: cited from earlier work
[1] = tested on: Aβ secretion in K269sw cells transfected with human pHaMDR1 construct; experiment: Aβ secretion from K269sw cells transiently transfected with pHaMDR1 (W0-2 western blot); format: cell-based; details: RU49953 0.01-1.0 μM, fifteen minutes; FIG. 12
Experimental: K269sw cells were cultured in 20 mm Falcon dishes in DMEM containing 10% FBS, and […] geneticin (GIBCO) to about 50% confluence and transiently transfected with the human pHaMDR1 construct using the calcium-phosphate precipitation technique as described above. Cells were replated at a density of 2.0×10^6 cells/dish 8 hours post-transfection on 10 cm petri dishes as described above. To assay for transfection efficiency, the β-gal gene was also co-transfected into the cells. β-gal staining was performed to determine the percentage of cells within each dish which were successfully transfected with the cDNA.
Exposures were performed without resuspending the cells. 10 mL of DMEM containing either control (DMSO), PMA (0.1 μM), or RU486 (0.001 μM, 0.01 μM, 0.1 μM, 1.0 μM), were prepared. DMSO concentrations in the medium were normalized to 0.01% (v/v). The supplemented medium was aspirated and 1 mL of the appropriate medium was added to the cells. […] 5 μL from each sample was collected for protein quantification. […]
SDS-PAGE was used to resolve secreted protein on a 16.5% tris-tricine polyacrylamide gel. […] Aβ was visualized using ECL and quantitation was performed as previously described. […]
Exposures were performed without resuspending the cells. […] 5 μL from each sample was collected for protein quantification. […]

CC#C[C@]1(O)CC[C@H]2[C@@H]3CCC4=CC(=O)CCC4=C3[C@@H](c3ccc(N(C)C)cc3)C[C@@]21C [RU49953, 17β-hydroxy-11β, 17α-[4-dimethylaminophenyl]-17α prop-1-ynyl estra-4, 9 dien-3 one]
binding to and block of MDR1 mediated efflux (MDR1): bind to and block | effect on Aβ secretion [1]: reduces Aβ secretion in fifteen minutes in a dose-dependent manner
